{
  "source": "paper PMC10851555",
  "about": "“Safinamide, an inhibitor of monoamine oxidase, modulates the magnitude, gating, and hysteresis of sodium ion current” (BMC Pharmacology & Toxicology, 2024)",
  "key": {"[1]": {"system": "voltage-gated sodium ion (NaV) channels in pituitary GH3 cells", "experiment": "Whole-cell patch-clamp of INa induced by a 30-ms depolarizing pulse (−100 to −10 mV) in GH3 cells", "assay_type": "cell-based, rat", "conditions": "for amplitude of INa(L) / amplitude of INa(T): 1 min after addition; for amplitude of INa(L): control 18 ± 3 pA; for amplitude of INa(T): control 512 ± 23 pA; for EC50: GH3 cells, modified Hill equation"}, "[2]": {"system": "single NaV channels in GH3 cells", "experiment": "Cell-attached single-channel NaV current recordings in GH3 cells", "assay_type": "cell-based, rat", "conditions": "n = 7", "protocol": "The composition of the external or bath solution [4-(2-hydroxyethyl)-1-piperazineethanesulfonic acid (HEPES)-buffered normal Tyrode’s solution] was as follows: 136.5 mM NaCl, 1.8 mM CaCl2, 5.4 mM KCl, 0.53 mM MgCl2, 5.5 mM glucose, and 5.5 mM HEPES–NaOH (pH 7.4). To measure K^+ currents (data not shown), we filled a patch pipette with an internal solution comprising 140 mM KCl, 1 mM MgCl2, 3 mM adenosine 5′-triphosphate disodium salt, 0.1 mM guanosine 5′-triphosphate disodium salt, 0.1 mM ethylene glycol tetraacetic acid, and 5 mM HEPES–KOH buffer (pH 7.2). To record the whole-cell INa, the K^+ in the internal solution was substituted with Cs^+, and the pH of the solution was adjusted to 7.2 by adding cesium hydroxide. In the single-channel experiments performed to record NaV currents, the pipette was filled with a Na^+-rich solution containing 136 mM NaCl, 0.53 mM MgCl2, 5.5 mM glucose, and 5.5 mM HEPES–NaOH (pH 7.2). The bath medium was a K^+-rich solution comprising 130 mM KCl, 10 mM NaCl, 3 mM MgCl2, 6 mM glucose, and 10 mM HEPES-KOH (pH 7.4). The solutions and culture media were generally filtered on the day of use by using sterile Acrodisc Syringe Filters containing a 0.2-μm Supor Membrane (Bio-Check; New Taipei City, Taiwan).\nSingle-channel NaV currents induced by depolarizing pulses ranging from −100 to −10 mV were measured and subsequently analyzed using pCLAMP 10.7. The opening events of the channels were generally evaluated through multi-Gaussian adjustments of the distribution of amplitude across channels. Functional independence between channels was determined by comparing the observed stationary probabilities with the values calculated based on the binomial law. For dwell-time analyses, only a single channel was used in the patch-clamp experiment.\nTo elucidate the mechanisms underlying the effects of SAF on the magnitude of INa, we investigated the actions of SAF and SAF plus MGB on single-channel NaV currents. This experiment was performed using the cell-attached configuration of the voltage-clamp test. Test cells were placed in K^+-rich solution, and the recording pipette was filled with Na^+-rich solution. SAF (10 μM) increased channel activity and decelerated current inactivation when the cells were exposed to depolarization stimuli ascending from –100 to –10 mV (rate of 0.1 Hz; Fig. 9A). Furthermore, the addition of MGB (10 μM) in the presence of 10 μM SAF reduced the probability of channel opening. […] Moreover, with the presence of 10 μM SAF, the mean open time of NaV channels was prolonged to […] (n = 7, P < 0.05) msec from a control value of 2.3 ± 0.3 msec (n = 7). […] Consistent with these findings, the mean open time of the NaV channel in the presence of 10 μM SAF (5.9 ± 1.1 ms; n = 7; P < 0.05) was longer than that in the control period (2.3 ± 0.3 ms, n = 7); the subsequent further addition of 10 μM MGB decreased the mean open time to 3.7 ± 0.7 ms (n = 7, P < 0.05) (Fig. 9B). […] MGB added during SAF exposure reversed the SAF-induced increase in NaV channel activity."}, "[3]": {"system": "voltage-gated sodium ion (NaV) channels in pituitary GH3 cells", "experiment": "Persistent INa [INa(P)] and Hys(V) induced by upright isosceles-triangular Vramp (3.2 s) in GH3 cells", "assay_type": "cell-based, rat", "conditions": "n = 7; for INa(P) amplitude at −10 mV [high-threshold Hys(V) loop]: control 175 ± 14 pA; for INa(P) amplitude at −80 mV [low-threshold Hys(V) loop]: control 288 ± 25 pA", "from_the_text": "We further investigated whether SAF exposure modulated the magnitude and Hys(V) behavior of INa(P) induced by an isosceles-triangular Vramp in GH3 cells. To record whole-cell currents, the test cells were maintained at −80 mV and subjected to an upright isosceles-triangular Vramp ascending from –110 and +50 mV over 3.2 s (digital-to-analog conversion; Fig. 8A). […] For example, when test cells were subjected to an isosceles-triangular Vramp over 3.2 s (ramp speed of 0.1 mV/ms), the INa(P) amplitudes measured at −10 mV (high threshold) and −80 mV (low threshold) during the control period were 175 ± 14 pA (n = 7) and 288 ± 25 pA (n = 7), respectively. After the addition of 3 and 10 μM SAF, the INa(P) amplitude at −10 mV [high-threshold Hys(V) loop] was 194 ± 17 pA (n = 7, P < 0.05) and 219 ± 18 pA (n = 7, P < 0.05), respectively; the corresponding amplitudes at −80 mV [low-threshold Hys(V) loop] were 348 ± 29 pA (n = 7, P < 0.05) and 389 ± 31 pA (n = 7, P < 0.05), respectively. […] These findings indicate the unique Hys(V) behavior of INa(P) induced by an isosceles-triangular Vramp in GH3 cells; SAF exposure may increase the strength of Hys(V).\nFig. 8 Stimulatory effects of SAF on the voltage-dependent hysteresis [Hys(V)] behavior of persistent INa [INa(P)] induced by upright isosceles-triangular Vramp. Vramp was supplied for 3.2 s (ramp speed of 0.1 mV/ms; digital-to-analog conversion) to induce Hys(V) behavior in GH3 cells. (A) Current traces during the control period (left) and during the exposure to 10 μM SAF (right). The blue and red traces shown in each panel represent currents induced by the upsloping (ascending) and downsloping (descending) limbs of the upright isosceles-triangular Vramp, respectively. The inset indicates the voltage protocol. The dashed arrows indicate the direction of the current trajectory over time. (B) Summary graphs illustrating the effects of SAF (3 and 10 μM), SAF plus MGB, and SAF plus Ran on the amplitude of Vramp-induced INa(P) measured at −10 mV (ascending limb; left side) and −80 mV (descending limb; right side)."}, "[4]": {"design": "method as in PMID 15082032", "conditions": "cited from earlier work"}, "[5]": {"system": "MAO-B", "conditions": "read-out: IC50 for inhibition of MAO-B activity; cited from earlier work"}},
  "note": "“And” between values parts separate entries of the source, which are not always exact repeats. Identical values can stand only once. Like-named read-outs stand apart in the source and are kept apart here.",
  "data": [
    {"molecule": "C[C@H](NCc1ccc(OCc2cccc(F)c2)cc1)C(N)=O", "note": "[SAF, (S)-2-((4-((3-fluorobenzyl)oxy)benzyl)amino)propanamide]", "values": [
      {"measurement": "amplitude of INa(L)", "setting": "[1]; 10 μM SAF, n = 8", "result": "54 ± 9", "unit": "pA"},
      {"measurement": "amplitude of INa(T)", "setting": "[1]; 10 μM SAF, n = 8", "result": "1387 ± 131", "unit": "pA"},
      {"measurement": "time constant of the fast component of INa(T) inactivation", "setting": "[1]; 30 μM SAF", "result": "no evident change"},
      {"measurement": "amplitude of INa(L)", "setting": "[1]; 30 μM SAF, n = 8", "result": "106 ± 17", "unit": "pA"},
      {"measurement": "amplitude of INa(T)", "setting": "[1]; 30 μM SAF, n = 8", "result": "1991 ± 153", "unit": "pA"},
      {"measurement": "time constant τinact(S), slow component of INa(T) inactivation", "setting": "[1]; 30 μM SAF, control 5.1 ± 0.7 ms, n = 8", "result": "10.2 ± 1.1", "unit": "ms"},
      {"measurement": "maximal conductance of INa", "setting": "[1]; 10 mM SAF (so in the source)", "result": "increased"},
      {"measurement": "sloping factor of the steady-state inactivation curve", "setting": "[1]; 10 mM SAF (so in the source)", "result": "no change"},
      {"measurement": "shift of steady-state inactivation curve of INa to the rightward direction", "setting": "[1]; 10 mM SAF (so in the source), two-step voltage-clamp protocol, n = 7", "result": "[…]"},
      {"measurement": "half-maximal activation voltage of INa(T) (G–V relationship)", "setting": "[1]; 3 or 10 μM SAF", "result": "shifted to more negative potentials"},
      {"measurement": "EC50", "setting": "[1]; current at beginning of 30-ms pulse −100 to −10 mV, read-out: EC50 for stimulation of transient INa [INa(T)]", "result": 27.1, "unit": "µM"},
      {"measurement": "EC50", "setting": "[1]; current at end of 30-ms pulse −100 to −10 mV, read-out: EC50 for stimulation of late INa [INa(L)]", "result": 4.8, "unit": "µM"},
      {"measurement": "amplitude of INa(L) after the removal of SAF", "setting": "[1]; washout, n = 8", "result": "20 ± 3", "unit": "pA"},
      {"measurement": "amplitude of INa(T) after the removal of SAF", "setting": "[1]; washout, n = 8", "result": "523 ± 24", "unit": "pA"},
      {"measurement": "channel activity (open-state probability) of NaV channels", "setting": "[2]; 10 μM SAF, control 0.027 ± 0.007", "result": "0.091 ± 0.006"},
      {"measurement": "mean open time of the NaV channel", "setting": "[2]; 10 μM SAF, control 2.3 ± 0.3 ms, second statement (Fig. 9B)", "result": "5.9 ± 1.1", "unit": "ms"},
      {"measurement": "mean open time of NaV channels", "setting": "[2]; 10 μM SAF, control 2.3 ± 0.3 msec, first statement", "result": "6.5 ± 0.7", "unit": "ms"},
      {"measurement": "amplitude of the single-channel current", "setting": "[2]; SAF 10 μM, control 2.01 ± 0.35 pA", "result": "2.03 ± 0.37", "unit": "pA"},
      {"measurement": "INa(P) amplitude at −10 mV [high-threshold Hys(V) loop]", "setting": "[3]; 3 μM SAF", "result": "194 ± 17", "unit": "pA"},
      {"measurement": "INa(P) amplitude at −80 mV [low-threshold Hys(V) loop]", "setting": "[3]; 3 μM SAF", "result": "348 ± 29", "unit": "pA"},
      {"measurement": "INa(P) amplitude at −10 mV [high-threshold Hys(V) loop]", "setting": "[3]; 10 μM SAF", "result": "219 ± 18", "unit": "pA"},
      {"measurement": "INa(P) amplitude at −80 mV [low-threshold Hys(V) loop]", "setting": "[3]; 10 μM SAF", "result": "389 ± 31", "unit": "pA"},
      {"measurement": "maximal plasma concentration", "setting": "[4]; single 2.5 mg/kg dose, 2.5 mg/kg", "result": "[…]"},
      {"measurement": "maximal plasma concentration", "setting": "[4]; single 5.0 mg/kg dose, 5 mg/kg", "result": "[…]"},
      {"measurement": "maximal plasma concentration", "setting": "[4]; single 10.0 mg/kg dose, 10 mg/kg", "result": "[…]"},
      {"measurement": "IC50", "setting": "[5]", "result": "[…]"}
    ]}
  ]
}
